Laboratory results published in patent US6500610B1, “Methods for identifying compounds for inhibiting of neoplastic lesions, and pharmaceutical compositions containing such compounds” (Cell Pathways, INC, priority 1997, dated 2002).
Where a name gives a salt, the structure may show the parent alone. Read-outs that look alike come from different tables or passages of the source.

Columns and labels:
rats [1] = assay: Seven-day dose-range finding study in rats; assay type: in vivo, rat; settings: seven days
rats [2] = assay: 28-day study in rats; assay type: in vivo, rat
[3] = tested on: LNCaP prostate tumor cell line; assay: Histone-associated DNA fragmentation in LNCaP; assay type: cell-based; settings: 50 μM free base, up to 4 days
Method: (§1) The androgen-sensitive prostate tumor cell line, LNCaP (from ATCC (Rockville, Md.)) was propogated under standard conditions using […] medium containing 5% fetal calve serum and 2 mM glutamine. Primary prostate epithelial cell cultures (PrEC) derived from normal prostate (from Clonetics Inc. (San Diego, Calif.)) were grown under the same conditions as the tumor cell line except a serum-free medium optimized for the growth of such cultures was used (Clonetics Inc). For the experiments, LNCaP or PrEC cells were seeded in 96 well plates at a density of 10,000 cells per well. After 24 hours, the cells were treated with either vehicle (0.1% DMSO) or 50 μM Compound I (free base) solubilized in DMSO. After various drug treatment times (4, 24, 48, 72, or 99 hours) the cells were lysed and processed for measurement of histone-associated DNA as an indicator of apoptotic cell death (see, Piazza et al., Cancer Research 57: 2452-2459, 1997).

[4] = tested on: PrEC primary prostate epithelial cells from normal prostate; assay: Histone-associated DNA fragmentation in PrEC; assay type: cell-based; settings: 50 μM, up to 4 days
Method: as §1

patients = assay: Single, escalating dose human clinical safety study; assay type: in vivo; settings: oral
[5] = tested on: azoxymethane-induced aberrant crypt foci in male Fisher 344 rats; assay: Azoxymethane-induced aberrant crypt foci (ACF) model; assay type: in vivo; settings: in the rat chow
Method: The growth inhibition IC50 value obtained for Compound I was 0.7 μM in the SW-480 cell line. […] This established rodent model of azoxymethane (“AOM”)-induced carcinogenesis was used to assess the effects of Compound I (free base and salt) on colon cancer development in vivo. ACF are precursors to colonic tumors, and ACF inhibition is predictive of chemo-preventive efficacy.
In the rats in this experiment, ACF initiation was achieved by two consecutive weekly injections of the carcinogen. Compound I was administered one week prior to ACF initiation and for the duration of the experiment. ACFs were scored after 5 weeks of treatment. Compound I was administered orally to male Fisher 344 rats in the rat chow. Daily food consumption (mg/kg body weight) varied over the course of the study, and therefore Compound I dose was expressed a grams per kg of diet to provide a basis of comparison between doses. […] The experimental groups gained less weight than the controls, which was indicative of bioavailability. However, the weight differences were less than 10% and not considered to affect ACF formation.
The free base of Compound I inhibited ACF formation as measured by a reduction of crypts per colon. […]

Colo 205 (Colon) = assay: Neutral red cytotoxicity assay, Colo 205; assay type: cell-based, human; settings: free base, five days
Method: (§2) Compound I's activity is not confined to activity against colon cancer cell lines or animal models of colon cancer. It has a broad range of anti-neoplastic effects in various neoplastic cell lines. Various types of human cancer cell lines were propagated under sterile conditions in RPMI 1640 medium with 10% fetal bovine serum, 2 mM L-glutamine and sodium bicarbonate. To determine growth inhibitory effects of Compound I, cells were seeded in 96-well plates at a density of 1000 cells per well. Twenty-four hours after plating, the cells were dosed with various concentrations of the free base of Compound I solubilized in DMSO (final concentration 0.1%). The effect of the drug on tumor cell growth was determined using the neutral red cytotoxicity assay following five days of continuous treatment. Neutral red is a dye that is selectively taken up by viable cells by an ATP-dependent transport mechanism.

HCT-15 (Colon) = assay: Neutral red cytotoxicity assay, HCT-15; assay type: cell-based, human; settings: free base, five days
Method: as §2

HT-29 (Colon) = assay: Neutral red cytotoxicity assay, HT-29; assay type: cell-based, human; settings: free base, five days
Method: as §2

SW-620 (Colon) = assay: Neutral red cytotoxicity assay, SW-620; assay type: cell-based, human; settings: free base, five days
Method: as §2

DU145 (Prostate) = assay: Neutral red cytotoxicity assay, DU145; assay type: cell-based, human; settings: free base, five days
Method: as §2

NCI-H23 (Lung) = assay: Neutral red cytotoxicity assay, NCI-H23; assay type: cell-based, human; settings: free base, five days
Method: as §2

NCI-H460 (Lung) = assay: Neutral red cytotoxicity assay, NCI-H460; assay type: cell-based, human; settings: free base, five days
Method: as §2

NCI-H82 (Lung) = assay: Neutral red cytotoxicity assay, NCI-H82; assay type: cell-based, human; settings: free base, five days
Method: as §2

MDA-MB-435 (Breast) = assay: Neutral red cytotoxicity assay, MDA-MB-435; assay type: cell-based, human; settings: free base, five days
Method: as §2

UISO-BCA-1 (Breast) = assay: Neutral red cytotoxicity assay, UISO-BCA-1; assay type: cell-based, human; settings: free base, five days
Method: as §2

rats [6] = settings: rat, in vivo
dogs = settings: dog, in vivo
[7] = Acute toxicity study in rats; settings: rat, in vivo
[8] = Acute and seven-dose toxicity in dogs; settings: both, dog, in vivo, po, 1000 mg/kg

Question: Which results are given for `CC1=C(CC(=O)NCc2ccccc2)c2cc(F)ccc2/C1=C\c1ccncc1` [Compound I, (Z)-5-fluoro-2-methyl-(4-pyridylidene)-3-(N-benzyl)indenylacetamide hydrochloride]?
Answer: signs of toxicity (rats [1]; 50 mg/kg/day): no observable signs of toxicity; treatment-related effects (rats [1]; 500 mg/kg/day): increase in absolute and relative liver weights in female rats; treatment-related effects (rats [1]; 2000 mg/kg/day): labored breathing and/or abnormal respiratory sounds, decreased weights gains and food consumption in male rats, and increased liver weights in female rats; organ weights (rats [2]; 28 days, 2000 mg/kg/day): statistically significant increase in liver weights; clinical observations (rats [2]; 28 days, 50, 500 and 2000 mg/kg/day): no abnormal clinical observations; histone-associated fragmented DNA [3]: time-dependent increase; DNA fragmentation [4]: did not affect DNA fragmentation; side effects (patients): no significant side effects at any dose; body weight difference to controls [5]: less than 10%; GI90 (Colo 205 (Colon)): 2400 nM; GI90 (HCT-15 (Colon)): 3000 nM; GI90 (HT-29 (Colon)): 8000 nM; GI90 (SW-620 (Colon)): 2500 nM; GI90 (DU145 (Prostate)): 2800 nM; GI90 (NCI-H23 (Lung)): 2500 nM; GI90 (NCI-H460 (Lung)): 30000 nM; GI90 (NCI-H82 (Lung)): 5800 nM; GI90 (MDA-MB-435 (Breast)): 2300 nM; GI90 (UISO-BCA-1 (Breast)): 4700 nM; body weight gain (rats [6]; ip, 1000 mg/kg): reduced body weight gain; body weight gain (rats [6]; po, 4000 mg/kg): body weight gains were slightly reduced; signs of toxicity (dogs; 1000 mg/kg): no signs of toxicity; drug-related effects (dogs; 1000 mg/kg/day): At no time in either dosing phase were any obvious signs of drug-related effects observed; LD50 ([7]; ip, 1000 mg/kg): > 1000 mg/kg; LD50 ([7]; po): > 4000 mg/kg; LD50 [8]: > 1000 mg/kg
